In US11370774B2, “Substituted benzofuran, benzopyrrole, benzothiophene, and structurally related complement inhibitors” (BioCryst Pharmaceuticals, Inc., priority 2018, dated 2022) one finds IC50 data, which are given here for 34 compounds.

Molecules are shown by their SMILES. A value given as a limit tells only on which side of the number the result lay.

Chain of Factor D (P00746 26-253): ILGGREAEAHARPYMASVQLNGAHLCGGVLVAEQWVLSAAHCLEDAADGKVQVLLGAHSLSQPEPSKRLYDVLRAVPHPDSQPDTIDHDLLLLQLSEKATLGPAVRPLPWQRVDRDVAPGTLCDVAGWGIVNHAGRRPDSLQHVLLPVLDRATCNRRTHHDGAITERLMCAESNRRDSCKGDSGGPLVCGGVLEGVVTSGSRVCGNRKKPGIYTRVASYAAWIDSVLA

The test has as its target Factor D (Homo sapiens (Human), UniProt P00746). Nature of the test: Factor D esterolytic assay (Z-Lys-SBzl substrate, DTNB, 405 nm). The format is biochemical. To be noted: Z-Lys-SBzl 1.29 mM, pH 7.5, 10% DMSO, tested a minimum of three times, read-out: Measured Ki (IC50) Value for Compounds: IC50. The gist of the method: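 Human Factor D ([…]) with 1.29 mM Z-Lys-SBzl in 100 mM HEPES, 500 mM NaCl, pH 7.5, 10% DMSO; substrate added immediately or after room-temperature preincubation. Released thiol reacted with DTNB, rate followed at 405 nm for 600 sec, 690 nm background subtracted. IC50 from percent inhibition versus uninhibited rate, n≥3.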
As to `NCc1cccc(-c2cc(COc3cc(-c4ccncc4)ccc3CC(=O)O)cc3ccoc23)c1` [Compound 323c, 2-(2-((7-(3-(aminomethyl)phenyl)benzofuran-5-yl)methoxy)-4-(pyridin-4-yl)phenyl)acetic acid], the IC50 – broadly, the concentration that inhibits the measured activity by half – is under 1000 nM. Consider `N#Cc1ccc(-c2ccc(CC(=O)O)c(OCc3cc(-c4cccc(CN)c4)c4occc4c3)c2)s1` [Compound 324c, 2-(2-((7-(3-(aminomethyl)phenyl)benzofuran-5-yl)methoxy)-4-(5-cyanothiophen-2-yl)phenyl)acetic acid], for which the IC50 is under 1000 nM. Regarding `NCc1cccc(-c2cc(COc3cc(-c4ccc(C(=O)O)s4)ccc3CC(=O)O)cc3ccoc23)c1` [Compound 325a, 5-(3-((7-(3-(aminomethyl)phenyl)benzofuran-5-yl)methoxy)-4-(carboxymethyl)phenyl)thiophene-2-carboxylic acid], the IC50 was under 1000 nM. Take `NCc1cccc(-c2cc(COc3cccc(F)c3CC(=O)O)cc3ccoc23)c1` [Compound 328f, 2-(2-((7-(3-(aminomethyl)phenyl)benzofuran-5-yl)methoxy)-6-fluorophenyl)acetic acid]: the IC50 is under 1000 nM. In the case of `NCc1cc(-c2cc(COc3ccc(F)cc3CC(=O)O)cc3ccoc23)ccn1` [Compound 329b, 2-(2-((7-(2-(aminomethyl)pyridin-4-yl)benzofuran-5-yl)methoxy)-5-fluorophenyl)acetic acid], the IC50 was under 1000 nM. The value for `CC(=O)c1ccc(OCc2cc(-c3cccc(CN)c3)c3occc3c2)c(CC(=O)O)c1` [Compound 330c, 2-(5-acetyl-2-((7-(3-(aminomethyl)phenyl)benzofuran-5-yl)methoxy)phenyl)acetic acid] was under 1000 nM; that for `NCc1cccc(-c2cc(COc3ccc(CN)cc3CC(=O)O)cc3ccoc23)c1` [Compound 331c, 2-(5-(aminomethyl)-2-((7-(3-(aminomethyl)phenyl)benzofuran-5-yl)methoxy)phenyl)acetic acid] was under 1000 nM; that for `NCc1cccc(-c2cc(COc3ccccc3CC(=O)O)cc3[nH]c(C(F)(F)F)cc23)c1` [Compound 332e, 2-(2-((4-(3-(aminomethyl)phenyl)-2-(trifluoromethyl)-1H-indol-6-yl)methoxy)phenyl)acetic acid] was under 1000 nM. `Cc1oc2c(-c3cccc(CN)c3)cc(COc3ccccc3CC(=O)O)cc2c1C` [Compound 333g, 2-(2-((7-(3-(aminomethyl)phenyl)-2,3-dimethylbenzofuran-5-yl)methoxy)phenyl)acetic acid]: the IC50 is under 1000 nM. For `COc1c(C(=O)Nc2ccccc2CC(=O)O)cc(-c2ccnc(CN)c2F)c2occc12` [Compound 334d, 2-(2-(7-(2-(aminomethyl)-3-fluoropyridin-4-yl)-4-methoxybenzofuran-5-carboxamido)phenyl)acetic acid], the IC50 was 1000 to 10000 nM. The value for `NCc1cc(-c2cc(COc3ccccc3CC(=O)O)cc3ccoc23)c2occc2c1` [Compound 335d, 2-(2-((5′-(aminomethyl)-[7,7′-bibenzofuran]-5-yl)methoxy)phenyl)acetic acid] was over 10000 nM; that for `NCc1cc(-c2cc(COc3ccccc3CC(=O)O)cc3sc(Cl)cc23)ccn1` [Compound 336c, 2-(2-((4-(2-(aminomethyl)pyridin-4-yl)-2-chlorobenzo[b]thiophen-6-yl)methoxy)phenyl)acetic acid] was under 1000 nM. On to `NCc1cccc(-c2cc(COc3ccccc3CC(=O)O)cc3sc(Cl)cc23)c1F` [Compound 337b, 2-(2-((4-(3-(aminomethyl)-2-fluorophenyl)-2-chlorobenzo[b]thiophen-6-yl)methoxy)phenyl)acetic acid], for which the half-maximal inhibitory concentration (IC50) was under 1000 nM. For `NCc1nccc(-c2cc(COc3ccccc3CC(=O)O)cc3sc(Cl)cc23)c1F` [Compound 338c, 2-(2-((4-(2-(aminomethyl)-3-fluoropyridin-4-yl)-2-chlorobenzo[b]thiophen-6-yl)methoxy)phenyl)acetic acid], the IC50 was under 1000 nM. Take `NCc1cc(-c2cc(COc3ccccc3CC(=O)O)cc3ccoc23)cs1` [Compound 339c, 2-(2-((7-(5-(aminomethyl)thiophen-3-yl)benzofuran-5-yl)methoxy)phenyl)acetic acid]: the IC50 is under 1000 nM. Take `Nc1c[nH]c2c(-c3cc(COc4ccccc4CC(=O)O)cc4ccoc34)cccc12` [Compound 341e, 2-(2-((7-(3-amino-1H-indol-7-yl)benzofuran-5-yl)methoxy)phenyl)acetic acid]: the concentration for half-maximal inhibition (IC50) is under 1000 nM.

Take `Cc1ccc(CC(=O)O)c(OCc2cc(-c3ccnc(CN)c3F)c3occc3c2F)c1` [Compound 342e, 2-(2-((7-(2-(aminomethyl)-3-fluoropyridin-4-yl)-4-fluorobenzofuran-5-yl)methoxy)-4-methylphenyl)acetic acid]: the IC50 is under 1000 nM. For `Cc1ccc(CC(=O)O)c(OCc2cc(-c3ccnc(CN)c3F)c3occ(C(F)(F)F)c3c2)c1` [Compound 343e, 2-(2-((7-(2-(aminomethyl)-3-fluoropyridin-4-yl)-3-(trifluoromethyl)benzofuran-5-yl)methoxy)-4-methylphenyl)acetic acid], the IC50 is under 1000 nM. For the compound `COCCOCCOCCOCc1cc2cc(COc3ccccc3CC(=O)O)cc(-c3cccc(CN)c3)c2o1` [Compound 344f, 2-(2-((7-(3-(aminomethyl)phenyl)-2-(2,5,8,11-tetraoxadodecyl)benzofuran-5-yl)methoxy)phenyl)acetic acid], the IC50 was under 1000 nM.

For the compound `Cc1ccc(CC(=O)O)c(OCc2cc(-c3cccc(CN)c3)c3occ(C(F)(F)F)c3c2)c1` [Compound 345b, 2-(2-((7-(3-(aminomethyl)phenyl)-3-(trifluoromethyl)benzofuran-5-yl)methoxy)-4-methylphenyl)acetic acid], the IC50 was under 1000 nM. Take `Cc1ccc(CC(=O)O)c(OCc2cc(-c3ccnc(CN)c3)c3occc3c2F)c1` [Compound 346c, 2-(2-((7-(2-(aminomethyl)pyridin-4-yl)-4-fluorobenzofuran-5-yl)methoxy)-4-methylphenyl)acetic acid]: the IC50 was under 1000 nM.

Consider `Cc1ccc(CC(=O)O)c(OCc2cc(-c3cccc(CN)c3)c3occc3c2F)c1` [Compound 347b, 2-(2-((7-(3-(aminomethyl)phenyl)-4-fluorobenzofuran-5-yl)methoxy)-4-methylphenyl)acetic acid], for which the IC50 is under 1000 nM. As for `Cc1ccc(CC(=O)O)c(OCc2cc(-c3cccc(CN)c3F)c3occc3c2F)c1` [Compound 348b, 2-(2-((7-(3-(aminomethyl)-2-fluorophenyl)-4-fluorobenzofuran-5-yl)methoxy)-4-methylphenyl)acetic acid], the concentration for half-maximal inhibition (IC50) is under 1000 nM.

Consider `Cc1ccc(CC(=O)O)c(OCc2cc(-c3cccc(CN)c3F)c3occ(C(F)(F)F)c3c2)c1` [Compound 349b, 2-(2-((7-(3-(aminomethyl)-2-fluorophenyl)-3-(trifluoromethyl)benzofuran-5-yl)methoxy)-4-methylphenyl)acetic acid], for which the half-inhibitory concentration (IC50) was under 1000 nM. In the case of `COc1ccc(OCc2cc(-c3cccc(CN)c3)c3occc3c2)c(CC(=O)O)c1` [Compound 350e, 2-(2-((7-(3-(aminomethyl)phenyl)benzofuran-5-yl)methoxy)-5-methoxyphenyl)acetic acid], the IC50 is under 1000 nM. `NCc1cccc(-c2cc(COc3ccccc3CC(=O)O)cc3c2ccn3-c2ccccc2)c1` [Compound 351f, 2-(2-((4-(3-(aminomethyl)phenyl)-1-phenyl-1H-indol-6-yl)methoxy)phenyl)acetic acid]: the IC50 was under 1000 nM.

Consider `Cc1ccc(CC(=O)O)c(OCc2cc(-c3cccc(CN)c3)c3ccn(C(C)C)c3c2)c1` [Compound 352c, 2-(2-((4-(3-(aminomethyl)phenyl)-1-isopropyl-1H-indol-6-yl)methoxy)-4-methylphenyl)acetic acid], for which the IC50 is under 1000 nM. The result for `Cc1ccc(CC(=O)O)c(OCc2cc(-c3cccc(CN)c3F)c3ccn(C(C)C)c3c2)c1` [Compound 353b, 2-(2-((4-(3-(aminomethyl)-2-fluorophenyl)-1-isopropyl-1H-indol-6-yl)methoxy)-4-methylphenyl)acetic acid] reads under 1000 nM. For the compound `Cc1ccc(CC(=O)O)c(OCc2cc(-c3ccnc(CN)c3)c3ccn(C(C)C)c3c2)c1` [Compound 354c, 2-(2-((4-(2-(aminomethyl)pyridin-4-yl)-1-isopropyl-1H-indol-6-yl)methoxy)-4-methylphenyl)acetic acid], the IC50 is under 1000 nM.

For the compound `Cc1ccc(CC(=O)O)c(OCc2cc(-c3ccnc(CN)c3F)c3ccn(C(C)C)c3c2)c1` [Compound 355c, 2-(2-((4-(2-(aminomethyl)-3-fluoropyridin-4-yl)-1-isopropyl-1H-indol-6-yl)methoxy)-4-methylphenyl)acetic acid], the IC50 is under 1000 nM. Regarding `COc1ccc(CC(=O)O)c(OCc2cc(-c3cccc(CN)c3)c3ccn(C(C)C)c3c2)c1` [Compound 356c, 2-(2-((4-(3-(aminomethyl)phenyl)-1-isopropyl-1H-indol-6-yl)methoxy)-4-methoxyphenyl)acetic acid], the IC50 was under 1000 nM. As to `COc1ccc(CC(=O)O)c(OCc2cc(-c3cccc(CN)c3F)c3ccn(C(C)C)c3c2)c1` [Compound 357b, 2-(2-((4-(3-(aminomethyl)-2-fluorophenyl)-1-isopropyl-1H-indol-6-yl)methoxy)-4-methoxyphenyl)acetic acid], the IC50 is under 1000 nM. In the case of `Cc1ccc(CC(=O)O)c(OCc2cc(-c3cccc(CN)c3)c3ccn(C)c3c2)c1` [Compound 358c, 2-(2-((4-(3-(aminomethyl)phenyl)-1-methyl-1H-indol-6-yl)methoxy)-4-methylphenyl)acetic acid], the IC50 is under 1000 nM. Consider `Cc1ccc(CC(=O)O)c(OCc2cc(-c3cccc(CN)c3F)c3ccn(C)c3c2)c1` [Compound 359b, 2-(2-((4-(3-(aminomethyl)-2-fluorophenyl)-1-methyl-1H-indol-6-yl)methoxy)-4-methylphenyl)acetic acid], for which the IC50 was under 1000 nM.
